Data reported in patent US9951064B2, “Azaindazole compounds as inhibitors of T790M containing EGFR mutants” (Genentech, Inc., priority 2013, dated 2018).

What was measured:
EGFR T790M L858R = molecular target: T1, EGFR T790M L858R (Homo sapiens, UniProt P00533, L858R/T790M); test: EGFR T790M L858R biochemical assay (Caliper mobility shift); conditions: 5 μM ATP; apparent Ki (Morrison fit) converted by Cheng-Prusoff, Km of ATP 1.3 μM
T1 construct: purchased Life Technologies PV4879
Protocol: The exemplified compounds described herein were tested according to the assay below. The enzyme data reported in Tables 4-5 is generally a representative of multiple experiments.
Reactions proceed for 30 minutes at room temperature (22° C.) and are terminated with 80 mM 2,2′,2″,2′″-(ethane-1,2-diyldinitrilo)tetraacetic acid (EDTA). Product is detected using the Caliper mobility shift detection method where product and substrate are electrophoretically separated and measured.

[1] = molecular target: T2, phosphor-EGFR in H1975(L585R/T790M) mutant EGFR expressing cells (Homo sapiens, UniProt P00533, L858R/T790M); test: H1975 pEGFR MSD cellular assay; type: cell-based; conditions: NCI-H1975 cells, serum starved, 1 hour compound incubation, pEGFR Tyr1068 MSD; read-out: HI975 pEGFR EC50
T2 construct: host or cells: NCI-H1975
Protocol: H1975 pEGFR MSD Cellular Assays
These assays are intended for determining cellular. […] (Meso Scale Discovery Catalog# N31CB-1).
NCI-H1975 (ATCC Catalog# CRL-5908) cells are maintained in medium containing RPMI 1640, 10% FBS, 4 mM L-Glutamine, 1% Penicillin-Streptomycin, and 4.5 g/L Glucose. All cell culture reagents were purchased from Invitrogen/Gibco. Cells are cultured at 37° C. at 5% CO2 and split as recommended by ATCC.
Cell Plating and Serum Starvation:
H1975 cells are harvested and plated into sterile cell culture treated 384 well plates (Greiner catalog #781091) at a density of 30,000 cells/well in 50 ul culture medium and placed in a 37° C. at 5% CO2 incubator for six hours. After six hours, culture medium is aspirated and replaced with serum-free culture medium. Cells are then incubated with the serum-free medium overnight at 37° C. and 5% CO2.
The following day, test compounds are serially diluted in dimethyl sulfoxide (DMSO) and added to cells in serum free medium (final DMSO concentration 0.5%). Assay plates are then incubated for 1 hour at 37° C. and 5% CO2. Following 1 hour of compound incubation cells are then lysed and processed as per the MSD pEGFR assay kit protocol. Cell lysates are added to assay plates pre-coated with antibodies against phosphorylated EGFR. Phosphorylated EGFR in samples are allowed to bind to the capture antibodies overnight at 4° C. The detection antibody (anti-total EGFR, labeled with an electrochemiluminescent SULFO-TAG) is added to the bound lysate and incubated for 1 hour at room temperature. The MSD Read Buffer is added such that when a voltage is applied to the plate electrodes, the labels bound to the electrode surface emit light. The MSD Sector Instrument measures the intensity of the light, and quantitatively measures the amount of phosphorylated-EGFR in the sample. Percent inhibition of EGFR phosphorylation by varying concentrations of test compounds is calculated relative to untreated controls. EC50 values are calculated using the 4 parameter logistic nonlinear regression dose-response model.

[2] = test system: H1975 (EGFR T790M/L858R) cell proliferation; test: H1975 proliferation assay (Cell Titer-Glo); type: cell-based; conditions: Homo sapiens, NCI-H1975, 72 h, NCI-H1975 cells, 72 hour incubation, read-out: H1975 antiproliferative EC50
Protocol: H1975 Proliferation Assays
All cell culture reagents were purchased from Invitrogen/Gibco. Cells are cultured at 37° C. at 5% CO2 and split as recommended by ATCC.

T1 sequence (P00533 25-1210 T790M/L858R): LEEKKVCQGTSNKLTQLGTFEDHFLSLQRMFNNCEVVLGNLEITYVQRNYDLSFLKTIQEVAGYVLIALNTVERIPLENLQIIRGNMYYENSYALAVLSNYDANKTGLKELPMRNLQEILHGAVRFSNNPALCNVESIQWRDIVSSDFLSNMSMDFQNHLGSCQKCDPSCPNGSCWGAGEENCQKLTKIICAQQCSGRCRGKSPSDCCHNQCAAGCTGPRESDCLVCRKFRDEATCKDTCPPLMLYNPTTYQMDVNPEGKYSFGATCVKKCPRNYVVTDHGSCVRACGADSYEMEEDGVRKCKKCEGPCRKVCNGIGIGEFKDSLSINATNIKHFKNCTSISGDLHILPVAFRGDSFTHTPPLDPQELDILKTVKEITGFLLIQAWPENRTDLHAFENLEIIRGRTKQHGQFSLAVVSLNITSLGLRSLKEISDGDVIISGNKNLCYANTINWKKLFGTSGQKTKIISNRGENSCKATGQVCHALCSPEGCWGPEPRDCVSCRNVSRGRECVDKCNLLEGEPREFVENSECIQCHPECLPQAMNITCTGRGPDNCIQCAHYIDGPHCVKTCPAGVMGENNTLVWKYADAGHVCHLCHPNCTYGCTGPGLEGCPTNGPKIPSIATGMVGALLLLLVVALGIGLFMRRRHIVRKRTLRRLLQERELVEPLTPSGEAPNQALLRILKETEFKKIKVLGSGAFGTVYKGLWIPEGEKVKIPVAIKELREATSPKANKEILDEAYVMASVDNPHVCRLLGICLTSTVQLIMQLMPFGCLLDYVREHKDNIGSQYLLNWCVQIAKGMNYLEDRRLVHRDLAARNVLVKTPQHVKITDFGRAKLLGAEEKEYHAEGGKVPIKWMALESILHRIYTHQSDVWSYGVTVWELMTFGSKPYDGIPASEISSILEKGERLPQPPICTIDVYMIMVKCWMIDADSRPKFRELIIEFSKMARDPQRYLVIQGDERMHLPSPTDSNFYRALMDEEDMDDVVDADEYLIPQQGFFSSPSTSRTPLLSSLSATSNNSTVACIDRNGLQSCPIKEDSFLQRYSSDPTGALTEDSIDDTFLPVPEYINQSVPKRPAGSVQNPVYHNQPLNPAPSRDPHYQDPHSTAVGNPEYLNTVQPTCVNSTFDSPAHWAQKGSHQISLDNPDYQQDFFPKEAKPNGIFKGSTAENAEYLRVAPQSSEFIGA
T2 sequence (P00533 25-1210 T790M/L858R): as above

SMILES	Ki (EGFR T790M L858R)	EC50 [1]	EC50 [2]
CCC(C)n1nc(N2CCNC2=O)c2cnc(Nc3ccnc(N4CC[C@@H](OC)[C@@H](F)C4)n3)cc21 (mixture of isomers) [Example 26, (±)-1-(1-(sec-Butyl)-6-((2-(cis-3-fluoro-4-methoxypiperidin-1-yl)pyrimidin-4-yl)amino)-1H-pyrazolo[4,3-c]pyridin-3-yl)imidazolidin-2-one]	0.0006 µM	0.0144 µM	0.108 µM
CC(C)n1nc(N2CCS(=O)(=O)CC2)c2cnc(Nc3ccnc(-c4cnn(S(=O)(=O)C5CC5)c4)n3)cc21 [Example 1, 4-(6-((2-(1-(Cyclopropylsulfonyl)-1H-pyrazol-4-yl)pyrimidin-4-yl)amino)-1-isopropyl-1H-pyrazolo[4,3-c]pyridin-3-yl)thiomorpholine 1,1-dioxide]	0.609 µM	0.606 µM	2.02 µM
CC(C)n1nc(N2CC3(COC3)C2)c2cnc(Nc3ccnc(-c4cnn(CC5CC5)c4)n3)cc21 [Example 4, N-(2-(1-(Cyclopropylmethyl)-1H-pyrazol-4-yl)pyrimidin-4-yl)-1-isopropyl-3-(2-oxa-6-azaspiro[3.3]heptan-6-yl)-1H-pyrazolo[4,3-c]pyridin-6-amine]	0.003 µM	0.219 µM	0.732 µM
CC(C)n1nc(N2CC3(COC3)C2)c2cnc(Nc3ccnc(-c4cnn(S(=O)(=O)C5CC5)c4)n3)cc21 [Example 5, N-(2-(1-(Cyclopropylsulfonyl)-1H-pyrazol-4-yl)pyrimidin-4-yl)-1-isopropyl-3-(2-oxa-6-azaspiro[3.3]heptan-6-yl)-1H-pyrazolo[4,3-c]pyridin-6-amine]	0.001 µM	0.0296 µM	0.421 µM
CC(C)n1nc(N2CCOCC2)c2cnc(Nc3ccnc(-c4cnn(CC5CC5)c4)n3)cc21 [Example 9, N-(2-(1-(Cyclopropylmethyl)-1H-pyrazol-4-yl)pyrimidin-4-yl)-1-isopropyl-3-morpholino-1H-pyrazolo[4,3-c]pyridin-6-amine]	0.0052 µM	0.382 µM	1.84 µM
CCS(=O)(=O)n1cc(-c2nccc(Nc3cc4c(cn3)c(NC3COC3)nn4C(C)C)n2)cn1 [Example 16, N^6-(2-(1-(Ethylsulfonyl)-1H-pyrazol-4-yl)pyrimidin-4-yl)-1-isopropyl-N^3-(oxetan-3-yl)-1H-pyrazolo[4,3-c]pyridine-3,6-diamine]	0.0011 µM	0.0797 µM	0.921 µM
CC(C)n1nc(C2CCOC2)c2cnc(Nc3ccnc(-c4cnn(S(=O)(=O)C5CC5)c4)n3)cc21 (stereo not drawn) [Example 19, N-(2-(1-(Cyclopropylsulfonyl)-1H-pyrazol-4-yl)pyrimidin-4-yl)-1-isopropyl-3-(tetrahydrofuran-3-yl)-1H-pyrazolo[4,3-c] pyridin-6-amine]	0.0049 µM	0.723 µM	1.47 µM
CC(C)n1nc(N2CC[C@@H](C#N)C2)c2cnc(Nc3ccnc(-c4cnn(S(=O)(=O)C5CC5)c4)n3)cc21 [Example 28, (R)-1-(6-((2-(1-(Cyclopropylsulfonyl)-1H-pyrazol-4-yl)pyrimidin-4-yl)amino)-1-isopropyl-1H-pyrazolo[4,3-c]pyridin-3-yl)pyrrolidine-3-carbonitrile]	0.0008 µM	0.0157 µM	0.121 µM
CC(C)n1nc(OC2CCOC2)c2cnc(Nc3ccnc(-c4cnn(S(=O)(=O)C5CC5)c4)n3)cc21 (stereo not drawn) [Example 29, N-(2-(1-(Cyclopropylsulfonyl)-1H-pyrazol-4-yl)pyrimidin-4-yl)-1-isopropyl-3-(tetrahydrofuran-3-yloxy)-1H-pyrazolo[4,3-c]pyridin-6-amine]	0.0019 µM	0.154 µM	0.798 µM
COCCNC(=O)C1CN(c2nn(C(C)C)c3cc(Nc4ccnc(-c5cnn(S(=O)(=O)C6CC6)c5)n4)ncc23)C1 [Example 30, 1-(6-(2-(1-(Cyclopropylsulfonyl)-1H-pyrazol-4-yl)pyrimidin-4-ylamino)-1-isopropyl-1H-pyrazolo[4,3-c]pyridin-3-yl)-N-(2-methoxyethyl)azetidine-3-carboxamide]	0.0007 µM	0.0513 µM	1.45 µM
CC(C)n1nc(N2CCCC2)c2cnc(Nc3ccnc(-c4cnn(CC5CC5)c4)n3)cc21 [Example 31, N-(2-(1-(cyclopropylmethyl)-1H-pyrazol-4-yl)pyrimidin-4-yl)-1-isopropyl-3-(pyrrolidin-1-yl)-1H-pyrazolo[4,3-c]pyridin-6-amine]	0.0014 µM	0.116 µM	1.06 µM
CC(C)n1ncc2cnc(Nc3ccnc(-c4cnn(CC5CC5)c4)n3)cc21 [Example 32, N-(2-(1-(cyclopropylmethyl)-1H-pyrazol-4-yl)pyrimidin-4-yl)-1-isopropyl-1H-pyrazolo[4,3-c]pyridin-6-amine]	0.0356 µM	3.83 µM	0.498 µM
CC(C)n1ncc2cnc(Nc3ccnc(N4CCC(O)C(C)(C)C4)n3)cc21 (stereo not drawn) [Example 33, 1-(4-((1-isopropyl-1H-pyrazolo[4,3-c]pyridin-6-yl)amino)pyrimidin-2-yl)-3,3-dimethylpiperidin-4-ol]	0.0075 µM	1.02 µM	0.11 µM
CC(C)n1nc(N2CCOCC2)c2cnc(Nc3ccnc(N4CCC(O)C(C)(C)C4)n3)cc21 (stereo not drawn) [Example 34]	0.0026 µM	0.111 µM	1.41 µM
CCS(=O)(=O)n1cc(-c2nccc(Nc3cc4c(cn3)c(N3CC(CO)C3)nn4C(C)C)n2)cn1 [Example 36, (1-(6-(2-(1-(ethylsulfonyl)-1H-pyrazol-4-yl)pyrimidin-4-ylamino)-1-isopropyl-1H-pyrazolo[4,3-c]pyridin-3-yl)azetidin-3-yl)methanol]	0.0007 µM	0.0158 µM	0.397 µM
CC(C)n1nc(N[C@H]2CCOC2)c2cnc(Nc3ccnc(-c4cnn(S(=O)(=O)C5CC5)c4)n3)cc21 [Example 39, (S)-N6-(2-(1-(cyclopropylsulfonyl)-1H-pyrazol-4-yl)pyrimidin-4-yl)-1-isopropyl-N3-(tetrahydrofuran-3-yl)-1H-pyrazolo[4,3-c]pyridine-3,6-diamine]	0.0011 µM	0.0711 µM	0.373 µM
CC(C)n1nc(N[C@@H]2CCOC2)c2cnc(Nc3ccnc(-c4cnn(S(=O)(=O)C5CC5)c4)n3)cc21 [Example 40, (R)-N6-(2-(1-(cyclopropylsulfonyl)-1H-pyrazol-4-yl)pyrimidin-4-yl)-1-isopropyl-N3-(tetrahydrofuran-3-yl)-1H-pyrazolo[4,3-c]pyridine-3,6-diamine]	0.0011 µM	0.0848 µM	0.775 µM
CC(C)n1nc(N2CC[C@@H](CO)C2)c2cnc(Nc3ccnc(-c4cnn(S(=O)(=O)C5CC5)c4)n3)cc21 [Example 41, (R)-(1-(6-(2-(1-(cyclopropylsulfonyl)-1H-pyrazol-4-yl)pyrimidin-4-ylamino)-1-isopropyl-1H-pyrazolo[4,3-c]pyridin-3-yl)pyrrolidin-3-yl)methanol]	0.0013 µM	0.0094 µM	0.162 µM
CC(C)n1nc(N2CC(O)C(F)C2)c2cnc(Nc3ccnc(-c4cnn(S(=O)(=O)C5CC5)c4)n3)cc21 (stereo not drawn) [Example 42, 1-(6-(2-(1-(cyclopropylsulfonyl)-1H-pyrazol-4-yl)pyrimidin-4-ylamino)-1-isopropyl-1H-pyrazolo[4,3-c]pyridin-3-yl)-trans-4-fluoropyrrolidin-3-ol]	0.0011 µM	0.0125 µM	0.24 µM
CC(C)n1nc(N2CCN=C2O)c2cnc(Nc3ccnc(-c4cnn(S(=O)(=O)C5CC5)c4)n3)cc21 [Example 43, 1-(6-(2-(1-(cyclopropylsulfonyl)-1H-pyrazol-4-yl)pyrimidin-4-ylamino)-1-isopropyl-1H-pyrazolo[4,3-c]pyridin-3-yl)-4,5-dihydro-1H-imidazol-2-ol]	0.0009 µM	0.0375 µM	0.237 µM
